Data published in the supplement of paper PMC10307832.

What was measured:
Assay in all cases: relative viability (nuclei count vs DMSO), 5 days (fraction); higher = more cells survive
EHT 1864 + Decitabine = compound: C1COCCN1CC2=CC(=O)C(=CO2)OCCCCCSC3=C4C=CC(=CC4=NC=C3)C(F)(F)F [EHT 1864] + Nc1ncn([C@H]2C[C@H](O)[C@@H](CO)O2)c(=O)n1 [Decitabine] (partner 2 µM)
Outline: (§1)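 Lung cancer cell lines in 1536-well plates were dosed by pin tool the day after seeding, either with one drug alone or with a fixed anchor-drug dose plus five library-drug doses (not always all listed) in √10 steps. After 5 days, cells were fixed and their nuclei stained in one step (final 0.05% Triton X-100, 1% formaldehyde, 1 ug/ml Hoechst), then counted on 4× images. Relative viability is the nuclei count in treated wells divided by that in vehicle wells. Values are medians of duplicate plates.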

EHT 1864 + Crizotinib = compound: C1COCCN1CC2=CC(=O)C(=CO2)OCCCCCSC3=C4C=CC(=CC4=NC=C3)C(F)(F)F [EHT 1864] + C[C@@H](Oc1cc(-c2cnn(C3CCNCC3)c2)cnc1N)c1c(Cl)ccc(F)c1Cl [Crizotinib] (partner 1 µM)
Outline: as §1

EHT 1864 + Phenformin = compound: C1COCCN1CC2=CC(=O)C(=CO2)OCCCCCSC3=C4C=CC(=CC4=NC=C3)C(F)(F)F [EHT 1864] + N=C(N)NC(=N)NCCc1ccccc1 [Phenformin] (partner 250 µM)
Outline: as §1

EHT 1864 + Navitoclax = compound: C1COCCN1CC2=CC(=O)C(=CO2)OCCCCCSC3=C4C=CC(=CC4=NC=C3)C(F)(F)F [EHT 1864] + CC1(C)CCC(c2ccc(Cl)cc2)=C(CN2CCN(c3ccc(C(=O)NS(=O)(=O)c4ccc(N[C@H](CCN5CCOCC5)CSc5ccccc5)c(S(=O)(=O)C(F)(F)F)c4)cc3)CC2)C1 [Navitoclax] (partner 0.5 µM)
Outline: as §1

Cell Line	relative viability (EHT 1864 + Decitabine; first compound 0.04 µM)	relative viability (EHT 1864 + Decitabine; first compound 0.1265 µM)	relative viability (EHT 1864 + Decitabine; first compound 0.4 µM)	relative viability (EHT 1864 + Decitabine; first compound 1.265 µM)	relative viability (EHT 1864 + Decitabine; first compound 4 µM)	relative viability (EHT 1864 + Crizotinib; first compound 0.04 µM)	relative viability (EHT 1864 + Crizotinib; first compound 0.1265 µM)	relative viability (EHT 1864 + Crizotinib; first compound 0.4 µM)	relative viability (EHT 1864 + Crizotinib; first compound 1.265 µM)	relative viability (EHT 1864 + Crizotinib; first compound 4 µM)	relative viability (EHT 1864 + Phenformin; first compound 0.04 µM)	relative viability (EHT 1864 + Phenformin; first compound 0.1265 µM)	relative viability (EHT 1864 + Phenformin; first compound 0.4 µM)	relative viability (EHT 1864 + Phenformin; first compound 1.265 µM)	relative viability (EHT 1864 + Phenformin; first compound 4 µM)	relative viability (EHT 1864 + Navitoclax; first compound 0.04 µM)	relative viability (EHT 1864 + Navitoclax; first compound 0.1265 µM)	relative viability (EHT 1864 + Navitoclax; first compound 0.4 µM)	relative viability (EHT 1864 + Navitoclax; first compound 1.265 µM)	relative viability (EHT 1864 + Navitoclax; first compound 4 µM)
NCI-H838	0.472	0.438	0.442	0.445	0.431	0.74	0.724	0.911	0.826	0.802	0.558	0.513	0.638	0.697	0.588	1.08	1.04	1.14	1.08	1.14
NCI-H1355	0.391	0.326	0.355	0.369	0.328	1.12	0.875	1.06	1.07	1.03	0.471	0.425	0.447	0.446	0.433	1.04	0.843	0.907	0.904	0.838
NCI-H1437	0.607	0.523	0.542	0.566	0.518	0.87	0.918	0.845	0.838	0.642	0.34	0.262	0.298	0.311	0.335	1.06	1.03	0.967	0.819	0.671
NCI-H1650	0.411	0.385	0.435	0.47	0.5	0.857	0.653	0.947	0.911	1.15			0.478	0.435	0.39	1.12	0.783	1.14	1.4	1.18
NCI-H1651	0.55	0.695	0.631	0.652	0.594	0.865	0.798	0.826	0.801	0.843	0.376	0.358	0.333	0.345	0.334	1.03	0.947	1.1	1	0.91
NCI-H1666	0.755	0.742	0.712	0.768	0.865	0.771	0.867	1.2	0.965	1.01	0.614	0.504	0.584	0.562	0.627	0.881	0.834	0.957	0.965	0.92
NCI-H1734	0.495	0.552	0.478	0.511	0.514	0.67	0.626	0.632	0.723	0.721	0.539		0.397	0.433	0.432	0.916	0.828	0.849	0.867	0.747
NCI-H1755	0.803	0.685	0.702	0.707	0.755	0.891	0.833	0.794	0.814	0.845	0.607	0.564	0.594	0.612	0.629	1.02	0.927	0.94	0.979	0.869
NCI-H1792	0.506		0.515	0.567	0.601	0.982	0.852	0.972	0.895	1.04	0.256			0.304	0.368	0.68	0.54	0.648	0.616	0.718
NCI-H1915	0.259		0.265	0.26	0.265	0.86		0.922	0.87	0.887	0.396		0.366	0.382	0.374	0.797		0.764	0.768	0.792
NCI-H1944	0.43		0.429	0.433	0.417	1.18		1.13	1.04	1.15	0.233		0.224	0.191	0.199	1.06		0.985	1.05	1.06
NCI-H1975	0.41	0.411	0.404	0.384	0.398	0.967	0.987	0.946	0.851	0.84	0.406	0.42	0.407		0.396	1.14	1.19	1.17	0.928	0.875
NCI-H1993	0.552		0.598	0.645	0.57	0.882	0.78	0.751	0.817	0.958	0.537		0.488	0.534	0.508	0.84	0.697	0.866	1.08	0.849
NCI-H2009	0.357	0.356	0.354	0.382	0.412	0.978	1.01	1.08	0.962	0.711	0.467	0.468	0.493	0.362	0.436	1.16	1.15	1.14	1.11	0.879
NCI-H2023	0.213	0.212	0.223	0.259	0.176	0.675	0.714	0.632	0.666	0.617	0.405	0.417	0.371	0.358	0.347	0.964	0.978	0.874	0.939	0.841
NCI-H2085	0.604	0.551	0.588	0.656	0.555	0.71	0.764	0.846	0.762	0.778	0.731		0.832	0.808	0.732	1.03	1.11	1.08	1.13	1.14
NCI-H2087	0.253		0.267	0.287	0.3	0.872	0.662	0.698	0.737	0.753	0.453		0.462	0.434	0.518	0.86	0.894	0.865	0.829	0.743
